Measurements from patent US20230114728A1 (Venatorx Pharmaceuticals, Inc., priority 2019, published 2023).
In brackets after ≈: the same amount, converted by molar mass.

Tested on: N. gonorrhoeae WHO Q
Assay: Liquid broth MIC in Fastidious broth
Type: cell-based
Settings: Neisseria gonorrhoeae, read-out: Minimum Inhibitory Concentration, N. gonorrhoeae WHO Q
Method in brief: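 Broth microdilution against gonococcal strains expressing mosaic PBP2, starting inoculum 5×10^5 CFU/mL in Fastidious broth. Incubation runs ~24 h at 36 °C under 5% CO2, with MIC scored visually at <10% of full growth.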

How did the MIC turn out when NCCN1CCN(C(=O)NC(C(=O)N[C@H]2Cc3cccc(C(=O)O)c3OB2O)c2cc(F)c(O)cc2F)C(=O)C1=O (stereo partly drawn) [Example 93, (3R)-3-(2-(4-(2-aminoethyl)-2,3-dioxopiperazine-1-carboxamido)-2-(2,5-difluoro-4-hydroxyphenyl)acetamido)-2-hydroxy-3,4-dihydro-2H-benzo[e][1,2]oxaborinine-8-carboxylic acid] was run?
Its MIC is > 64 µg/mL.

With CCN1CCN(C(=O)NC(C(=O)N[C@H]2Cc3cccc(C(=O)O)c3OB2O)c2cccc(NC(=O)c3cccnc3)c2)C(=O)C1=O (stereo partly drawn) [Example 97, (3R)-3-(2-(4-ethyl-2,3-dioxopiperazine-1-carboxamido)-2-(3-(nicotinamido)phenyl)acetamido)-2-hydroxy-3,4-dihydro-2H-benzo[e][1,2]oxaborinine-8-carboxylic acid] as the molecule, how does the MIC read?
Its MIC is > 64 µg/mL.

For CCN1CCN(C(=O)NC(C(=O)N[C@H]2Cc3cccc(C(=O)O)c3OB2O)c2cccc(S(N)(=O)=O)c2)C(=O)C1=O (stereo partly drawn) [Example 99, (3R)-3-(2-(4-ethyl-2,3-dioxopiperazine-1-carboxamido)-2-(3-sulfamoylphenyl)acetamido)-2-hydroxy-3,4-dihydro-2H-benzo[e][1,2]oxaborinine-8-carboxylic acid], which MIC is on record?
Its MIC is 16 to 32 µg/mL (≈ 27.2 to 54.5 µM).

How did the MIC turn out when NCCN1CCN(C(=O)N[C@@H](C(=O)N[C@H]2Cc3cccc(C(=O)O)c3OB2O)c2ccc(O)cc2F)C(=O)C1=O (single isomer, unassigned) [Example 89] was run?
Its MIC is > 64 µg/mL.

For CCN1CCN(C(=O)NC(C(=O)N[C@H]2Cc3ccc(OCCN)c(C(=O)O)c3OB2O)c2ccccc2)C(=O)C1=O (stereo partly drawn) [Example 60, (3R)-7-(2-aminoethoxy)-3-(2-(4-ethyl-2,3-dioxopiperazine-1-carboxamido)-2-phenylacetamido)-2-hydroxy-3,4-dihydro-2H-benzo[e][1,2]oxaborinine-8-carboxylic acid], which MIC is on record?
Its MIC is > 64 µg/mL.

How did the MIC turn out when CCN1CCN(C(=O)NC(C(=O)N[C@H]2Cc3cccc(C(=O)O)c3OB2O)c2cccc(NS(C)(=O)=O)c2)C(=O)C1=O (stereo partly drawn) [Example 76, (3R)-3-(2-(4-ethyl-2,3-dioxopiperazine-1-carboxamido)-2-(3-(methylsulfonamido)phenyl)acetamido)-2-hydroxy-3,4-dihydro-2H-benzo[e][1,2]oxaborinine-8-carboxylic acid] was run?
The MIC was > 64 µg/mL.

CCN1CCN(C(=O)NC(C(=O)N[C@H]2Cc3cccc(C(=O)O)c3OB2O)c2ccc(O)cc2O)C(=O)C1=O (stereo partly drawn) [Example 69, (3R)-3-(2-(2,4-dihydroxyphenyl)-2-(4-ethyl-2,3-dioxopiperazine-1-carboxamido)acetamido)-2-hydroxy-3,4-dihydro-2H-benzo[e][1,2]oxaborinine-8-carboxylic acid] was tested. Which MIC did it give?
Its MIC is > 64 µg/mL.

N=C(N)NCCN1CCN(C(=O)NC(C(=O)N[C@H]2Cc3ccc(F)c(C(=O)O)c3OB2O)c2ccc(C(=O)O)c(F)c2)C(=O)C1=O (stereo partly drawn) [Example 78, (3R)-3-(2-(4-carboxy-3-fluorophenyl)-2-(4-(2-guanidinoethyl)-2,3-dioxopiperazine-1-carboxamido)acetamido)-7-fluoro-2-hydroxy-3,4-dihydro-2H-benzo[e][1,2]oxaborinine-8-carboxylic acid] was tested. Which MIC did it give?
Its MIC is > 64 µg/mL.

Which MIC does the source give for O=C(NC(C(=O)N[C@H]1Cc2ccc(F)c(C(=O)O)c2OB1O)c1ncc(O)cc1F)c1ccnc(F)c1 (stereo partly drawn) [Example 53, (3R)-7-fluoro-3-(2-(3-fluoro-5-hydroxypyridin-2-yl)-2-(2-fluoroisonicotinamido)acetamido)-2-hydroxy-3,4-dihydro-2H-benzo[e][1,2]oxaborinine-8-carboxylic acid] here?
Its MIC is > 64 µg/mL.

With CCN1CCN(C(=O)N[C@H](C(=O)N[C@H]2Cc3cccc(C(=O)O)c3OB2O)c2cc(O)cc(O)c2)C(=O)C1=O (single isomer, unassigned) [Example 81] as the molecule, how does the MIC read?
The MIC was 16 to 32 µg/mL (≈ 29.6 to 59.2 µM).

CCN1CCN(C(=O)NC(C(=O)N[C@H]2Cc3ccc(C=O)c(C(=O)O)c3OB2O)c2csc(N)n2)C(=O)C1=O (stereo partly drawn) [Example 57, (3R)-3-(2-(2-aminothiazol-4-yl)-2-(4-ethyl-2,3-dioxopiperazine-1-carboxamido)acetamido)-7-formyl-2-hydroxy-3,4-dihydro-2H-benzo[e][1,2]oxaborinine-8-carboxylic acid] was tested. Which MIC did it give?
The MIC was > 64 µg/mL.

With CCN1CCN(C(=O)NC(C(=O)N[C@H]2Cc3ccc(CO)c(C(=O)O)c3OB2O)c2csc(N)n2)C(O)C1=O (stereo partly drawn) [Example 58, (3R)-3-(2-(2-aminothiazol-4-yl)-2-(4-ethyl-2-hydroxy-3-oxopiperazine-1-carboxamido)acetamido)-2-hydroxy-7-(hydroxymethyl)-3,4-dihydro-2H-benzo[el][1,2]oxaborinine-8-carboxylic acid] as the molecule, how does the MIC read?
Its MIC is > 64 µg/mL.

For CCN1CCN(C(=O)NC(C(=O)N[C@H]2Cc3cccc(C(=O)O)c3OB2O)c2cccc(NC(=O)c3cncnc3)c2)C(=O)C1=O (stereo partly drawn) [Example 96, (3R)-3-(2-(4-ethyl-2,3-dioxopiperazine-1-carboxamido)-2-(3-(pyrimidine-5-carboxamido)phenyl)acetamido)-2-hydroxy-3,4-dihydro-2H-benzo[e][1,2]oxaborinine-8-carboxylic acid], which MIC is on record?
The MIC was > 64 µg/mL.

Which MIC does the source give for CCN1CCN(C(=O)NC(C(=O)N[C@H]2Cc3cccc(C(=O)O)c3OB2O)c2cc(O)cc(O)c2)C(=O)C1=O (mixture of isomers) [Example 79, (3R)-3-(2-(3,5-dihydroxyphenyl)-2-(4-ethyl-2,3-dioxopiperazine-1-carboxamido)acetamido)-2-hydroxy-3,4-dihydro-2H-benzo[e][1,2]oxaborinine-8-carboxylic acid] here?
The MIC was 4 to 8 µg/mL.

NCCN1CCN(C(=O)N[C@H](C(=O)N[C@H]2Cc3cccc(C(=O)O)c3OB2O)c2ccc(O)cc2F)C(=O)C1=O (single isomer, unassigned) [Example 88] was tested. Which MIC did it give?
The MIC was > 64 µg/mL.

NCCN1CCN(C(=O)NC(C(=O)N[C@H]2Cc3cccc(C(=O)O)c3OB2O)c2cc(Cl)c(O)cc2F)C(=O)C1=O (stereo partly drawn) [Example 87, (3R)-3-(2-(4-(2-aminoethyl)-2,3-dioxopiperazine-1-carboxamido)-2-(5-chloro-2-fluoro-4-hydroxyphenyl)acetamido)-2-hydroxy-3,4-dihydro-2H-benzo[e][1,2]oxaborinine-8-carboxylic acid] was tested. Which MIC did it give?
The MIC was > 64 µg/mL.

How did the MIC turn out when NC(=O)c1ccc(C(NC(=O)N2CCN(CCF)C(=O)C2=O)C(=O)N[C@H]2Cc3cccc(C(=O)O)c3OB2O)cc1O (stereo partly drawn) [Example 46, (3R)-3-(2-(4-carbamoyl-3-hydroxyphenyl)-2-(4-(2-fluoroethyl)-2,3-dioxopiperazine-1-carboxamido)acetamido)-2-hydroxy-3,4-dihydro-2H-benzo[e][1,2]oxaborinine-8-carboxylic acid] was run?
Its MIC is 16 to 32 µg/mL (≈ 27.3 to 54.7 µM).

How did the MIC turn out when NCCN1CCN(C(=O)N[C@@H](C(=O)N[C@H]2Cc3cccc(C(=O)O)c3OB2O)c2cc(Cl)c(O)cc2Cl)C(=O)C1=O [Example 90, (R)-3-((R)-2-(4-(2-aminoethyl)-2,3-dioxopiperazine-1-carboxamido)-2-(2,5-dichloro-4-hydroxyphenyl)acetamido)-2-hydroxy-3,4-dihydro-2H-benzo[e][1,2]oxaborinine-8-carboxylic acid] was run?
Its MIC is > 64 µg/mL.

How did the MIC turn out when CCN1CCN(C(=O)NC(C(=O)N[C@H]2Cc3ccc(O[C@@H]4CN[C@H](C(=O)N(C)C)C4)c(C(=O)O)c3OB2O)c2ccccc2)C(=O)C1=O (stereo partly drawn) [Example 59, (3R)-7-(((3S,5S)-5-(dimethylcarbamoyl)pyrrolidin-3-yl)oxy)-3-(2-(4-ethyl-2,3-dioxopiperazine-1-carboxamido)-2-phenylacetamido)-2-hydroxy-3,4-dihydro-2H-benzo[e][1,2]oxaborinine-8-carboxylic acid] was run?
The MIC was > 64 µg/mL.
